Patent US8216786B2, “Genetic polymorphisms associated with cardiovascular diseases, methods of detection and uses thereof” (Celera Corporation, priority 2008, dated 2012)

Tested on: individuals who have previously had an MI
Assay: CARE trial: effect of pravastatin vs placebo on coronary events (endpt1, rmi) by SNP genotype subgroup
Assay type: in vivo, human
Settings: for HR: pravastatin vs placebo
Experimental: In Tables 21-22, the column labeled “Endpoint” indicates whether the endpoint that was analyzed was the primary endpoint of the CARE study (a composite endpoint of fatal coronary event or nonfatal MI, and identified as “endpt1”) or a composite endpoint of confirmed fatal or nonfatal MI (identified as “rmi”). […] As used herein, the term “benefit” (with respect to a preventive or therapeutic drug treatment) is defined as achieving a reduced risk for a disease that the drug is intended to treat or prevent (e.g., CVD such as CHD, particularly MI, or hypertension) by administering the drug treatment, compared with the risk for the disease in the absence of receiving the drug treatment (or receiving a placebo in lieu of the drug treatment) for the same genotype. […] J. […] (1996) New England Journal of Medicine 335: 1001-1009. […] A well-documented MI was one of the enrollment criteria for entry into the CARE study. Patients were enrolled in the CARE trial from 80 participating study centers. […] For the study of CARE described in this Example and shown in Tables 21-22, two endpoints were investigated: the primary endpoint of CARE (a composite endpoint of fatal coronary event or nonfatal MI, and identified as “endpt1” in the Endpoint column of Tables 21-22) and a composite endpoint of confirmed fatal or nonfatal MI (identified as “rmi” in the Endpoint column of Tables 21-22). […] HR stands for Hazard Ratio, which is a concept similar to Odds Ratio (OR). The HR in event-free survival analysis is the effect of an explanatory variable on the hazard or risk of an event. […] In Table 21, p-interaction values were calculated. An interaction (or effect modification) is formed when a third variable modifies the relation between an exposure and outcome. […] Genotype and drug interaction is present when the effect of statins (incidence rate of disease in statin-treated group, as compared to placebo) differs in patients with different genotypes.

[1] = endpt1, hCV8851065 rs9277343 HLA-DPA1, GC + CC
[2] = endpt1, hCV8851065 rs9277343 HLA-DPA1, GG
[3] = endpt1, hCV8851085 rs1042153 HLA-DPB1, AG + AA
[4] = endpt1, hCV8851085 rs1042153 HLA-DPB1, GG
[5] = endpt1, hCV8851095 rs1042335 HLA-DPB1, TC + CC
[6] = endpt1, hCV8851095 rs1042335 HLA-DPB1, TT
[7] = endpt1, hCV8895373 rs1503185 PTPRJ, AG + AA
[8] = endpt1, hCV8895373 rs1503185 PTPRJ, GG
[9] = endpt1, hCV8901525 rs861539 KLC1, AG + AA
[10] = endpt1, hCV8901525 rs861539 KLC1, GG
[11] = endpt1, hCV8921288 rs1060621 GAPDH, AA
[12] = endpt1, hCV8921288 rs1060621 GAPDH, CA + CC
[13] = endpt1, hCV9055799 rs3734311 IMPG1, CC
[14] = endpt1, hCV9055799 rs3734311 IMPG1, CG + GG
[15] = endpt1, hCV9077561 rs1801274 FCGR2A, AA
[16] = endpt1, hCV9077561 rs1801274 FCGR2A, GA + GG
[17] = endpt1, hCV9506149 rs1250259 FN1, AA
[18] = endpt1, hCV9506149 rs1250259 FN1, TA + TT
[19] = endpt1, hCV9596963 rs6115 SERPINA5, GA + AA
[20] = endpt1, hCV9596963 rs6115 SERPINA5, GG
[21] = endpt1, hCV9604851 rs1805002 CCKBR, AG + AA
[22] = endpt1, hCV9604851 rs1805002 CCKBR, GG
[23] = endpt1, hCV25630686 PSMB9, TC + TT
[24] = endpt1, hCV25631989 rs1135983 ATF6, CC
[25] = endpt1, hCV25631989 rs1135983 ATF6, TC + TT
[26] = endpt1, hCV25637309 rs3204849 CCRL2, AA
[27] = endpt1, hCV25637309 rs3204849 CCRL2, AT + TT
[28] = endpt1, hCV25644901 ITGA9, GA + GG
[29] = endpt1, hCV25651076 rs5743291 NOD2, AG + AA
[30] = endpt1, hCV25651076 rs5743291 NOD2, GG
[31] = endpt1, hCV25651174 rs9277356 HLA-DPB1, GA + GG
[32] = endpt1, hCV342590 rs6030 F5, Strata CC
[33] = endpt1, hCV342590 rs6030 F5, Strata CT
[34] = endpt1, hCV342590 rs6030 F5, Strata TT
[35] = endpt1, hCV435368 rs2812 PECAM1, Strata CC
[36] = endpt1, hCV435368 rs2812 PECAM1, Strata TC
[37] = endpt1, hCV435368 rs2812 PECAM1, Strata TT
[38] = endpt1, hCV3135085 rs10795446 CUBN, Strata GT
[39] = endpt1, hCV3135085 rs10795446 CUBN, Strata TT
[40] = endpt1, hCV3275199 rs2069885 IL9, Strata AA
[41] = endpt1, hCV3275199 rs2069885 IL9, Strata AG
[42] = endpt1, hCV3275199 rs2069885 IL9, Strata GG

## CC[C@H](C)C(=O)O[C@H]1C[C@H](O)C=C2C=C[C@H](C)[C@H](CC[C@@H](O)C[C@@H](O)CC(=O)O)[C@H]21 [pravastatin]
endpt1, hCV8851047 rs45614833 HLA-DPA1, CT + TT
  NONEVENT (Pravastatin arm): 1229
[1]
  EVENTS (Pravastatin arm): 120
  NONEVENT (Pravastatin arm): 1198
[2]
  EVENTS (Pravastatin arm): 13
  NONEVENT (Pravastatin arm): 90
[3]
  EVENTS (Pravastatin arm): 58
  NONEVENT (Pravastatin arm): 491
[4]
  EVENTS (Pravastatin arm): 74
  NONEVENT (Pravastatin arm): 798
[5]
  EVENTS (Pravastatin arm): 126
  NONEVENT (Pravastatin arm): 1216
[6]
  EVENTS (Pravastatin arm): 7
  NONEVENT (Pravastatin arm): 40
[7]
  EVENTS (Pravastatin arm): 53
  NONEVENT (Pravastatin arm): 409
[8]
  EVENTS (Pravastatin arm): 80
  NONEVENT (Pravastatin arm): 882
[9]
  EVENTS (Pravastatin arm): 88
  NONEVENT (Pravastatin arm): 759
[10]
  EVENTS (Pravastatin arm): 45
  NONEVENT (Pravastatin arm): 504
[11]
  EVENTS (Pravastatin arm): 97
  NONEVENT (Pravastatin arm): 815
[12]
  EVENTS (Pravastatin arm): 36
  NONEVENT (Pravastatin arm): 440
[13]
  EVENTS (Pravastatin arm): 15
  NONEVENT (Pravastatin arm): 247
[14]
  EVENTS (Pravastatin arm): 117
  NONEVENT (Pravastatin arm): 1040
[15]
  EVENTS (Pravastatin arm): 36
  NONEVENT (Pravastatin arm): 300
[16]
  EVENTS (Pravastatin arm): 96
  NONEVENT (Pravastatin arm): 985
endpt1, hCV9494470, GG
  EVENTS (Pravastatin arm): 100
  NONEVENT (Pravastatin arm): 884
endpt1, hCV9494470, TG + TT
  EVENTS (Pravastatin arm): 33
  NONEVENT (Pravastatin arm): 407
[17]
  EVENTS (Pravastatin arm): 64
  NONEVENT (Pravastatin arm): 678
[18]
  EVENTS (Pravastatin arm): 69
  NONEVENT (Pravastatin arm): 611
[19]
  EVENTS (Pravastatin arm): 106
  NONEVENT (Pravastatin arm): 1147
[20]
  EVENTS (Pravastatin arm): 26
  NONEVENT (Pravastatin arm): 136
[21]
  EVENTS (Pravastatin arm): 19
  NONEVENT (Pravastatin arm): 113
[22]
  EVENTS (Pravastatin arm): 114
  NONEVENT (Pravastatin arm): 1178
endpt1, hCV25630686 PSMB9, CC
  EVENTS (Pravastatin arm): 128
  NONEVENT (Pravastatin arm): 1206
[23]
  EVENTS (Pravastatin arm): 5
  NONEVENT (Pravastatin arm): 85
[24]
  EVENTS (Pravastatin arm): 107
  NONEVENT (Pravastatin arm): 1044
[25]
  EVENTS (Pravastatin arm): 26
  NONEVENT (Pravastatin arm): 198
[26]
  EVENTS (Pravastatin arm): 24
  NONEVENT (Pravastatin arm): 184
[27]
  EVENTS (Pravastatin arm): 109
  NONEVENT (Pravastatin arm): 1107
endpt1, hCV25640504, TC + CC
  EVENTS (Pravastatin arm): 113
  NONEVENT (Pravastatin arm): 1035
endpt1, hCV25640504, TT
  EVENTS (Pravastatin arm): 12
  NONEVENT (Pravastatin arm): 194
endpt1, hCV25644901 ITGA9, AA
  EVENTS (Pravastatin arm): 124
  NONEVENT (Pravastatin arm): 1171
[28]
  EVENTS (Pravastatin arm): 9
  NONEVENT (Pravastatin arm): 120
[29]
  EVENTS (Pravastatin arm): 28
  NONEVENT (Pravastatin arm): 217
[30]
  EVENTS (Pravastatin arm): 104
  NONEVENT (Pravastatin arm): 1068
[31]
  EVENTS (Pravastatin arm): 76
  NONEVENT (Pravastatin arm): 641
[32]
  EVENTS (Pravastatin arm): 15
  NONEVENT (Pravastatin arm): 123
[33]
  EVENTS (Pravastatin arm): 44
  NONEVENT (Pravastatin arm): 553
[34]
  EVENTS (Pravastatin arm): 74
  NONEVENT (Pravastatin arm): 613
[35]
  EVENTS (Pravastatin arm): 37
  NONEVENT (Pravastatin arm): 369
[36]
  EVENTS (Pravastatin arm): 56
  NONEVENT (Pravastatin arm): 649
[37]
  EVENTS (Pravastatin arm): 40
  NONEVENT (Pravastatin arm): 272
[38]
  EVENTS (Pravastatin arm): 64
  NONEVENT (Pravastatin arm): 554
[39]
  EVENTS (Pravastatin arm): 57
  NONEVENT (Pravastatin arm): 575
[40]
  EVENTS (Pravastatin arm): 5
  NONEVENT (Pravastatin arm): 28
[41]
  EVENTS (Pravastatin arm): 18
  NONEVENT (Pravastatin arm): 310
[42]
  EVENTS (Pravastatin arm): 109
  NONEVENT (Pravastatin arm): 947
hCV16189421, first genotype stratum listed (strata and endpoint not given)
  HR: 1
hCV16189421, second genotype stratum listed (strata and endpoint not given)
  HR: 0.67
hCV25630686, first genotype stratum listed (strata and endpoint not given)
  HR: 0.35
hCV25630686, second genotype stratum listed (strata and endpoint not given)
  HR: 0.81
hCV25631989, first genotype stratum listed (strata and endpoint not given)
  HR: 1.83
hCV25631989, second genotype stratum listed (strata and endpoint not given)
  HR: 0.72
hCV25644901, first genotype stratum listed (strata and endpoint not given)
  HR: 0.32
hCV25644901, second genotype stratum listed (strata and endpoint not given)
  HR: 0.86
